For assay [1], the target named is T1, glucagon receptor (GCGR) overexpressed CHO-K1 cells or human primary hepatocytes (Homo sapiens, UniProt P47871).
T1 construct: expressed in transfected cells; host or cells: GCGR overexpressed CHO-K1 cells or human primary hepatocytes (endogenous receptor)
Description: Glucagon cAMP inhibition assay (Cisbio cAMP Dynamic 2 HTRF). It is filed as cell-based. The procedure, abridged:
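HTRF read-out of glucagon-induced cAMP, with IC50 from non-linear regression. Cells (GCGR CHO-K1 or human primary hepatocytes) in HBSS/0.1% BSA/800 nM IBMX took compound dilutions for 30 min (final DMSO 1%), then EC50-level glucagon for 30 min at room temperature, then a 60 min lysis/detection step.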

In a further assay the target is T2, glucagon receptor (GCGR) (Homo sapiens, UniProt P47871).
T2 construct: expressed in transfected cells; host or cells: CHO-K1 cells overexpressing GCGR (membrane fractions)
T2 sequence (P47871 26-477): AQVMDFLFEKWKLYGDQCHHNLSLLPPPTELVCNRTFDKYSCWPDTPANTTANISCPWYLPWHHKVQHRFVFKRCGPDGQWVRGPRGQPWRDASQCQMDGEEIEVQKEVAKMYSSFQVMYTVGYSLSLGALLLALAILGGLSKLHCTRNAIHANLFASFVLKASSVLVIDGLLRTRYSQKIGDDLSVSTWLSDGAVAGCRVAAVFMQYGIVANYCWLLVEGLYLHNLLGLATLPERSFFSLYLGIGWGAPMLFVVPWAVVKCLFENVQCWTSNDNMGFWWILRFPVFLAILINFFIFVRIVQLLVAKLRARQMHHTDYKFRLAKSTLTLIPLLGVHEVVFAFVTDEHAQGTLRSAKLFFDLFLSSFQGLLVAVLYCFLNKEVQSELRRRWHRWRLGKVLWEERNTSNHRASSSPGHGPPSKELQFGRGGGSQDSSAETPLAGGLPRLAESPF
Description: I125-glucagon binding assay (competition, GCGR membrane fractions). The procedure, abridged:
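Competition of 0.0625 nM (final) I^125-glucagon for 30 min at 25° C, after 5 min compound preincubation, using 7.5 μg/well GCGR-overexpressing CHO-K1 membranes in 50 mM Tris pH 7.4, 0.5% BSA. Filtration onto PEI-coated GF/B, micro-beta counting, and non-linear regression gave IC50.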

Where [2] appears, read: inhibition of glucagon (EC50 concentration) induced cAMP production.
[3] abbreviates: competition with I125-glucagon 0.0625 nM, membrane fractions of GCGR overexpressed CHO-K1 cells.

Like-named read-outs stand apart in the source and are kept apart here.

T1 sequence (P47871 26-477): as above

A word on the IC50: it is the midpoint of a concentration-inhibition curve. Higher therefore signals a need for much substance. In the case of `CC(C)[C@@H](COc1ccc(-c2cc3ccccc3o2)c(Cl)c1)Nc1ccc(C(=O)NCCS(=O)(=O)O)cc1` [Compound 3-18, (S)-2-(4-((1-(4-(benzofuran-2-yl)-3-chlorophenoxy)-3-methylbutan-2-yl)amino)benzamido)ethane-1-sulfonic Acid], the “IC50 cAMP” value in assay [1] (setting [2]) is greater than 30 µM. Besides, on glucagon receptor (GCGR) (setting [3]), the IC50 turned out to be 0.836 µM.

On to `CC(C)(C)[C@@H](COc1ccc(-c2cc3ccccc3o2)c(F)c1)Nc1ccc(C(=O)NCCC(=O)O)cc1` [Compound 8-21, (S)-3-(4-((1-(4-(benzofuran-2-yl)-3-fluorophenoxy)-3,3-dimethylbutan-2-yl)amino)benzamido)propanoic Acid], for which the “IC50 cAMP” value in assay [1] (setting [2]) was found to be 0.181 µM. The molecule further gave an IC50 on glucagon receptor (GCGR) (setting [3]) of 0.111 µM.

Regarding `CC(C)[C@@H](COc1ccc(-c2cc3ccccc3o2)nn1)Nc1ccc(C(=O)NCCC(=O)O)cc1` [Compound 17-8, (S)-3-(4-((1-((6-(benzofuran-2-yl)pyridazin-3-yl)oxy)-3-methylbutan-2-yl)amino)benzamido)propanoic Acid], in assay [1] (setting [2]), the “IC50 cAMP” value turned out to be 10.741 µM. In addition, the IC50 on glucagon receptor (GCGR) (setting [3]) was determined as 2.04 µM.

Consider `O=C(O)CCNC(=O)c1ccc(N[C@@H](Cc2ccc(F)cc2)C(=O)Nc2ccc(-c3cc4ccccc4o3)cc2)cc1` [Compound 23-10, (S)-3-(4-((1-((4-(benzofuran-2-yl)phenyl)amino)-3-(4-fluorophenyl)-1-oxopropan-2-yl)amino)benzamido)propanoic Acid], for which the “IC50 cAMP” value in assay [1] was found to be 1.9 µM. At glucagon receptor (GCGR), this molecule registered an IC50 of 0.061 µM.

`CCCC[C@@H](COc1cc(C)c(-c2cc3ccccc3o2)c(C)c1)Nc1ccc(C(=O)NCCC(=O)O)cc1` [Compound 2-12, (S)-3-(4-((1-(4-(benzofuran-2-yl)-3,5-dimethylphenoxy)hexan-2-yl)amino)benzamido)propanoic Acid]: the “IC50 cAMP” value in assay [1] (setting [2]) was 0.0628 µM. Also, the IC50 on glucagon receptor (GCGR) (setting [3]) turned out to be 0.108 µM.

With `CC[C@H](C)[C@@H](COc1ccc(-c2ccc(Cl)cc2Cl)cc1)Nc1ccc(C(=O)NC[C@@H](O)C(=O)O)cc1` [Compound 1-14, (R)-3-(4-(((2S,3S)-1-((2′,4′-dichloro-[1,1′-biphenyl]-4-yl)oxy)-3-methylpentan-2-yl)amino)benzamido)-2-hydroxypropanoic Acid], the “IC50 cAMP” value in assay [1] (setting [2]) stood at 3.553 µM. Moreover, the IC50 at glucagon receptor (GCGR) (setting [3]) turned out to be 0.112 µM.

In the case of `CCCC[C@@H](COc1cnc(-c2ccc(C(F)(F)F)cc2Cl)nc1)Nc1ccc(C(=O)NCCC(=O)O)cc1` [Compound 12-5, (S)-3-(4-((1-((2-(2-chloro-4-(trifluoromethyl)phenyl)pyrimidin-5-yl)oxy)hexan-2-yl)amino)benzamido)propanoic Acid], the “IC50 cAMP” value in assay [1] (setting [2]) was 2.357 µM. Moreover, the IC50 at glucagon receptor (GCGR) (setting [3]) came to 0.451 µM.

On to `CC[C@H](C)[C@@H](COc1nnc(-c2ccc(C(F)(F)F)cc2F)o1)Nc1ccc(C(=O)NCCC(=O)O)cc1` [Compound 22-1, 3-(4-(((2S,3S)-1-((5-(2-fluoro-4-(trifluoromethyl)phenyl)-1,3,4-oxadiazol-2-yl)oxy)-3-methylpentan-2-yl)amino)benzamido)propanoic Acid], for which, in assay [1], the “IC50 cAMP” value was greater than 30 µM. Besides, the IC50 at glucagon receptor (GCGR) amounted to 0.062 µM.

For `O=C(O)CCNC(=O)c1ccc(N[C@H](Cc2ccc(-c3ccc(Cl)cc3Cl)cc2)C(=O)Nc2ccc(C(F)(F)F)cc2)cc1` [Compound 24-18, (R)-3-(4-((3-(2′,4′-dichloro-[1,1′-biphenyl]-4-yl)-1-oxo-1-((4-(trifluoromethyl)phenyl)amino)propan-2-yl)amino)benzamido)propanoic Acid], in assay [1], the “IC50 cAMP” value is 1.51 µM. In addition, the IC50 on glucagon receptor (GCGR) stood at 0.239 µM.

With `CC(C)[C@@H](COc1ccc(-c2cc3ccccc3o2)cc1)Nc1ccc(C(=O)NCCC(=O)O)cn1` [Compound 4-2, (S)-3-(6-((1-(4-(benzofuran-2-yl)phenoxy)-3-methylbutan-2-yl)amino)nicotinamido)propanoic Acid], the “IC50 cAMP” value in assay [1] (setting [2]) came out at 0.1213 µM. The molecule also came in with an IC50 at glucagon receptor (GCGR) (setting [3]) of 0.09 µM.

Regarding `CC(C)[C@@H](COc1ccc(-c2ccc(C(F)(F)F)cc2F)nn1)Nc1ccc(C(=O)NCCC(=O)O)cc1` [Compound 17-9], the “IC50 cAMP” value in assay [1] (setting [2]) is 11.597 µM. Further, the IC50 at glucagon receptor (GCGR) (setting [3]) is 2.6 µM.

Take `CC[C@H](C)[C@@H](COc1ccc(-c2ccc(OC)cc2Cl)cc1)Nc1ccc(C(=O)NCCC(=O)O)cc1` [Compound 1-38, 3-(4-(((2S,3S)-1-((2′-chloro-4′-methoxy-[1,1′-biphenyl]-4-yl)oxy)-3-methylpentan-2-yl)amino)benzamido)propanoic Acid]: in assay [1] (setting [2]), the “IC50 cAMP” value was found to be 0.203 µM. This molecule yielded an IC50 at glucagon receptor (GCGR) (setting [3]) of 0.172 µM.

As to `CC(C)[C@H](Nc1ccc(C(=O)NCCC(=O)O)cc1)C(=O)Nc1ccc(-c2cc3ccccc3o2)cc1` [Compound 23-33, (S)-3-(4-((1-((4-(benzofuran-2-yl)phenyl)amino)-3-methyl-1-oxobutan-2-yl)amino)benzamido)propanoic Acid], the “IC50 cAMP” value in assay [1] worked out at 1.633 µM. For the same molecule, on glucagon receptor (GCGR), the 50% inhibitory concentration (IC50) was determined as 1.01 µM.

Consider `CC(C)C[C@@H](Nc1ccc(C(=O)NCCC(=O)O)cc1)C(=O)Nc1ccc(C(F)(F)F)cc1` [Compound 24-10, (R)-3-(4-((4-methyl-1-oxo-1-((4-(trifluoromethyl)phenyl)amino)pentan-2-yl)amino)benzamido)propanoic Acid], for which, in assay [1], the “IC50 cAMP” value was 30.78 µM. Moreover, on glucagon receptor (GCGR), the IC50 was found to be 5.82 µM.

Turning to `CC(C)C[C@@H](COc1ccc(-c2ccc(C(F)(F)F)cc2Cl)cn1)Nc1ccc(C(=O)NCCS(=O)(=O)O)cc1` [Compound 15-18], the “IC50 cAMP” value in assay [1] was greater than 30 µM. The same molecule had an IC50 on glucagon receptor (GCGR) of 1.31 µM.

On to `CC[C@H](C)[C@H](Nc1ccc(C(=O)NCCC(=O)O)cc1)C(=O)Nc1ccc(-c2cc3ccccc3o2)cc1` [Compound 23-31, 3-(4-(((2S,3S)-1-((4-(benzofuran-2-yl)phenyl)amino)-3-methyl-1-oxopentan-2-yl)amino)benzamido)propanoic Acid], for which the “IC50 cAMP” value in assay [1] is 4.145 µM. Besides, the IC50 on glucagon receptor (GCGR) is 0.294 µM.

For `CCCC[C@@H](COc1ccc(-c2ccc(C(F)(F)F)cc2F)cn1)Nc1ccc(C(=O)NCCC(=O)O)cc1` [Compound 15-26, (S)-3-(4-((1-((5-(2-fluoro-4-(trifluoromethyl)phenyl)pyridin-2-yl)oxy)hexan-2-yl)amino)benzamido)propanoic Acid], the “IC50 cAMP” value in assay [1] is 0.2066 µM. On glucagon receptor (GCGR), the IC50 was 0.228 µM.

Take `CCCC[C@@H](COc1ccc(-c2ccc(C(F)(F)F)cc2Cl)c(Cl)c1)Nc1ccc(C(=O)NCc2nnn[nH]2)cc1` [Compound 3-9, (S)—N-((1H-tetrazol-5-yl)methyl)-4-((1-((2,2′-dichloro-4′-(trifluoromethyl)-[1,1′-biphenyl]-4-yl)oxy)hexan-2-yl)amino)benzamide]: the “IC50 cAMP” value in assay [1] (setting [2]) is 0.5281 µM. The molecule also registered an IC50 at glucagon receptor (GCGR) (setting [3]) of 0.037 µM.

In the case of `CC(C)[C@@H](COc1ccc(-c2ccc(C(F)(F)F)cc2Cl)cc1)Nc1ccc(C(=O)NCCC(=O)O)cc1` [Compound 1-22, (S)-3-(4-((1-((2′-chloro-4′-(trifluoromethyl)-[1,1′-biphenyl]-4-yl)oxy)-3-methylbutan-2-yl)amino)benzamido)propanoic Acid], the “IC50 cAMP” value in assay [1] (setting [2]) came out at 0.0142 µM. The same molecule yielded a half-inhibitory concentration (IC50) on glucagon receptor (GCGR) (setting [3]) of 0.07 µM.

Turning to `CCCC[C@@H](COc1ccc(-c2ccc(C(F)(F)F)cc2)cc1)Nc1ccc(C(=O)NCCC(=O)O)cc1` [Compound 1-15, (S)-3-(4-((1-((4′-(trifluoromethyl)-[1,1′-biphenyl]-4-yl)oxy)hexan-2-yl)amino)benzamido)propanoic Acid], the “IC50 cAMP” value in assay [1] (setting [2]) is 0.3388 µM. The IC50 on glucagon receptor (GCGR) (setting [3]) was 0.211 µM.

For `CCOC(=O)CCNC(=O)c1ccc(N[C@H](Cc2ccc(-c3cc4ccccc4o3)cc2)C(=O)Nc2cc(F)cc(F)c2)cc1` [Compound 24-23, Ethyl (R)-3-(4-((3-(4-(benzofuran-2-yl)phenyl)-1-((3,5-difluorophenyl)amino)-1-oxopropan-2-yl)amino)benzamido)propanoate], in assay [1], the “IC50 cAMP” value was found to be 9.529 µM. This molecule also returned an IC50 on glucagon receptor (GCGR) of 0.168 µM.

For `CCOC(=O)CCNC(=O)c1ccc(N[C@@H](CC(C)C)C(=O)Nc2ccc(-c3cc4ccccc4s3)cc2)cc1` [Compound 23-11, Ethyl (S)-3-(4-((1-((4-(benzo[b]thiophen-2-yl)phenyl)amino)-4-methyl-1-oxopentan-2-yl)amino)benzamido)propanoate], the “IC50 cAMP” value in assay [1] was determined as 6.8 µM. The IC50 at glucagon receptor (GCGR) (uM) was greater than 10 µM.

Take `CC(C)(C)c1ccc(-c2ccc(C[C@@H](Nc3ccc(C(=O)NCCC(=O)O)cc3)C(=O)Nc3ccc(OC(F)(F)F)cc3)cc2)cc1` [Compound 24-26, (R)-3-(4-((3-(4′-(tat-butyl)-[1,1′-biphenyl]-4-yl)-1-oxo-1-((4-(trifluoromethoxy)phenyl)amino)propan-2-yl)amino)benzamido)propanoic Acid]: the “IC50 cAMP” value in assay [1] was determined as 0.8313 µM. Besides, on glucagon receptor (GCGR), the IC50 is 0.0457 µM.

Consider `CCOC(=O)CCNC(=O)c1ccc(N[C@H](Cc2ccc(-c3ccc(C(C)(C)C)cc3)cc2)C(=O)Nc2ccc(OC(F)(F)F)cc2)cc1` [Compound 24-25, Ethyl (R)-3-(4-((3-(4′-(tert-butyl)-[1,1′-biphenyl]-4-yl)-1-oxo-1-((4-(trifluoromethoxy)phenyl)amino)propan-2-yl)amino)benzamido)propanoate], for which the “IC50 cAMP” value in assay [1] (uM) is greater than 10 µM. Besides, on glucagon receptor (GCGR), the IC50 was 0.226 µM.

The values above are taken from US11384060B2, “Amide compounds and use thereof” (ALPHALA CO., LTD., priority 2017, dated 2022).
